Experimental findings from patent US20230322756A1, “FUSED IMIDAZOLE DERIVATIVE, PREPARATION METHOD THEREFOR, AND MEDICAL USE THEREOF” (JIANGSU HENGRUI MEDICINE CO., LTD., priority 2020, published 2023) are described below.

For the experiment, the target named is GLP-1 receptor (Homo sapiens (Human), UniProt P43220). Nature of the experiment: Agonist activity against GLP-1 receptor, CRE-luciferase reporter (ONE-Glo) in CHO-K1/CRE-luc/GLP-1 receptor cells. To be noted: 6 h incubation. The experiment is classed as cell-based. An excerpt: This experiment was intended to test the agonist activity of the compound molecules against the GLP-1 receptor and evaluate the in vitro activity of the molecules according to EC50. The experiment adopted a ONE-Glo™ Luciferase Assay System (Promega, E6110). Under the action of compound molecules, GLP-1R downstream signaling pathways were activated to cause elevated cAMP level. The combination of cAMP and CRE could start the transcription expression of CRE downstream luciferase genes, the luciferase could emit fluorescence when reacting with substrates thereof, and the activity of the compound for agonizing GLP-1 receptors was reflected by measuring fluorescence signals through a ONE-Glo™ reagent.
Sequence of GLP-1 receptor (P43220 24-463): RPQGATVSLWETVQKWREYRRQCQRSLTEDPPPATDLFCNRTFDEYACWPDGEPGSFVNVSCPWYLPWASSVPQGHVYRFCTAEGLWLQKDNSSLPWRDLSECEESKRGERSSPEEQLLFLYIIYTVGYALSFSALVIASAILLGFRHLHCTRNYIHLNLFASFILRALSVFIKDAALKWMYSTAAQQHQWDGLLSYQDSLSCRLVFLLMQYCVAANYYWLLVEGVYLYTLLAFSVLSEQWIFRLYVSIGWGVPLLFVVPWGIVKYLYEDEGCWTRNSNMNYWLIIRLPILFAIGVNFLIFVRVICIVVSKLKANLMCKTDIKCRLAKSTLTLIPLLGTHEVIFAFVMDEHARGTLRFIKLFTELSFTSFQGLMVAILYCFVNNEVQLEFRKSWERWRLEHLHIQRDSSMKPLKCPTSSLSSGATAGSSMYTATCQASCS
Stably-expressed CHO-K1/CRE-luc/GLP-1 receptor cell strains (self-construction of GLP-1 receptor plasmid; CRE-luc plasmid Promega E8471) were constructed. CHO-K1/CRE-luc/GLP-1 receptor cells were digested, and resuspended after centrifugation. […] The plate was incubated in an incubator for 16 h (37° C., 5% CO2).
The compound was dissolved in DMSO to prepare a stock solution with an initial concentration of 20 mM. The starting concentration of the small molecule compound was 0.2 mM, and the compound underwent 3-fold serial dilution for a total of 10 concentration points, with DMSO at the 11th point. To another 96-well plate was added 95 μL of cell culture medium (DME/F-12+10% FBS), 5 μL of test samples with different concentrations were added to each well, followed by uniform mixing, and then 10 μL of test samples with different concentrations were added to each well, with two duplicate wells set for each sample. The plate was incubated in an incubator for 6 h (37° C., 5% CO2). The 96-well cell culture plate was taken out, and 100 μL of ONE-Glo™ reagent was added to each well, followed by incubation at room temperature for 10 min. The plate was placed in a microplate reader (EnVision 2105, PE) for determination of chemiluminescence.
Data were processed and analyzed using Microsoft Excel and Graphpad Prism 5.
For orientation: A reporter such as luciferase makes a cellular process visible.

For orientation: EC50 means the concentration that produces a half-maximal response. What is called Emax is the size of the effect at its maximum, as opposed to the concentration needed.

Consider `O=C(O)c1ccc2nc(CN3CCC(c4cccc5c4O[C@@H](c4ccc(Cl)cc4F)CO5)CC3)n(C[C@@H]3CCO3)c2n1` [Example 5, 2-((4-((S)-3-(4-Chloro-2-fluorophenyl)-2,3-dihydrobenzo[b][1,4]dioxan-5-yl)piperidin-1-yl)methyl)-3-((S)-oxetan-2-ylmethyl)-3H-imidazo[4,5-b]pyridine-5-carboxylic acid], for which the EC50 is 120 pM and the Emax stood at 107%.
